In PMC6839570:

Assay: Thioether (C-S) macrocyclisation: SN2' of the free C-terminal Cys-NH2 thiol on an N-terminal O-acetyl Morita-Baylis-Hillman (2-methylene-3-acetoxyacyl) residue, Et3N 3% v/v, 48 h; crude cleaved linear peptides
Settings: the molecule shown is the open-chain precursor, 16-membered ring, dry THF/CH2Cl2 1:1, 1.0 mM, 25.0 °C, 11 steps

With C=C(C(=O)N[C@@H](C)C(=O)N[C@@H](CC(C)C)C(=O)N[C@@H](Cc1ccccc1)C(=O)N[C@@H](CS)C(N)=O)C(C)OC(C)=O (stereo partly drawn) [CH3CH(OAc)C(=CH2)CO-Ala-Leu-Phe-Cys-NH2] as the compound, how does the ring closure, overall yield read?
Its ring closure, overall yield is 14.8%.

Which ring closure, overall yield does the source give for C=C(C(=O)N[C@@H](Cc1ccccc1)C(=O)N[C@H](CC(C)C)C(=O)N[C@@H](C)C(=O)N[C@@H](CS)C(N)=O)C(C)OC(C)=O (stereo partly drawn) [CH3CH(OAc)C(=CH2)CO-Phe-D-Leu-Ala-Cys-NH2] here?
The ring closure, overall yield was 14.4%.

Which ring closure, overall yield does the source give for C=C(C(=O)N[C@@H](Cc1ccccc1)C(=O)N[C@H](CC(C)C)C(=O)N[C@H](C)C(=O)N[C@@H](CS)C(N)=O)C(C)OC(C)=O (stereo partly drawn) [CH3CH(OAc)C(=CH2)CO-Phe-D-Leu-D-Ala-Cys-NH2] here?
Its ring closure, overall yield is 7.3%.

Which ring closure, overall yield does the source give for C=C(C(=O)N[C@@H](Cc1ccccc1)C(=O)N[C@@H](CC(C)C)C(=O)N[C@@H](C)C(=O)N[C@@H](CS)C(N)=O)C(C)OC(C)=O (stereo partly drawn) [CH3CH(OAc)C(=CH2)CO-Phe-Leu-Ala-Cys-NH2] here?
Its ring closure, overall yield is 10.2%.

For C=C(C(=O)N[C@@H](Cc1ccccc1)C(=O)N[C@@H](CC(C)C)C(=O)N[C@H](C)C(=O)N[C@@H](CS)C(N)=O)C(C)OC(C)=O (stereo partly drawn) [CH3CH(OAc)C(=CH2)CO-Phe-Leu-D-Ala-Cys-NH2], which ring closure, overall yield is on record?
Its ring closure, overall yield is 2.7%.

With C=C(C(=O)N[C@@H](Cc1ccccc1)C(=O)N[C@H](CC(C)C)C(=O)N[C@H](C)C(=O)N[C@@H](CS)C(N)=O)C(CCCCCC)OC(C)=O (stereo partly drawn) [n-C6H13CH(OAc)C(=CH2)CO-Phe-D-Leu-D-Ala-Cys-NH2] as the compound, how does the ring closure, overall yield read?
The ring closure, overall yield was 11.8%.

For C=C(C(=O)N[C@@H](Cc1ccccc1)C(=O)N[C@@H](CC(C)C)C(=O)N[C@H](C)C(=O)N[C@@H](CS)C(N)=O)C(CCCCCC)OC(C)=O (stereo partly drawn) [n-C6H13CH(OAc)C(=CH2)CO-Phe-Leu-D-Ala-Cys-NH2], which ring closure, overall yield is on record?
The ring closure, overall yield was 4.7%.
